Assay [1] addresses human sodium channel Nav 1.8 (Homo sapiens (Human), UniProt Q9Y5Y9). Description: Automated whole-cell voltage-clamp (ScreenPatch 384P), Nav 1.8 sodium current, Protocol 2. The assay is classed as cell-based. As to conditions: read-out: Nav1.8 IC50. Here is the method:
(§1) Biological assays were performed on Chinese hamster ovary (CHO) cells expressing the human sodium channels Nav 1.8 and Nav 1.7 stably.
(§2) The experimental voltage-clamp protocol using the whole cell configuration was established on the automated ScreenPatch® 384P platform (SP384PE, Nanion Technologies, Livingston, NJ) and recording of the results was performed with a Nanion 384-well Patch Clamp chip (NPC) (Nanion Technologies, Livingston, NJ).
(§3) Compounds of Formula (I), were diluted in eight concentrations in the extracellular solution composed of physiological saline, buffered with HEPES (mM): NaCl, 137; KCl, 4; CaCl2, 3.8; MgCl2, 1; HEPES, 10; Glucose, 10; pH 7.4. The […], 50; CsF, 90; MgCl2, 5; EGTA, 5; HEPES, 10; pH 7.2. The duration of exposure of each compound with the cells expressing Nav 1.7 or Nav 1.8 was at least five minutes and the assays were performed at room temperature.
(§4) The measurements of the sodium currents of Nav 1.8 and Nav 1.7 were obtained using the voltage protocols described below: • Protocol 1: A holding voltage of-90 mV was established followed by a voltage phase of 200 ms to-120 mV, followed by a voltage step of 10 mV for 1 second for Nav 1.8 or 0 mV for Nav 1.7, followed by a step of-100 mV for 20 ms, followed by a step of 20 ms for 10 mV for Nav 1.8 or 0 mV for Nav 1.7 (TP1A) before returning to the holding voltage of-90 mV. • Protocol 2: A holding voltage of-100 mV was established followed by an inactivation voltage step at −40 mV for 8 seconds, followed by a −100 mV step for 20 ms, followed by a 20 ms step for 10 mV for Nav 1.8 or 0 mV for Nav 1.7 (TP1A) before returning to the holding voltage of-100 mV.
(§5) Protocols were repeated at a frequency of 0.1 Hz (Protocol 1) or 0.05 Hz (Protocol 2) and current amplitude was quantified over the TP1A phase log. The variation in the peak amplitude of the current was evaluated according to the Formula described below, after exposure of the cells expressing the channels, at each concentration of the different compounds:
(§6) where ITP1A,basal, and ITP1A,molecule represent the entry peaks of sodium currents into TP1A prior to exposure to the compound and in the presence of the compound, respectively.
(§7) The decrease in peak current amplitude, after exposure of the cells to the compounds, was used to calculate the percent relative blocking of the channels relative to the positive control according to the Formula below: […]
(§8) where % V and % CP represent the averages of the values of current inhibition with a vehicle (DMSO) and positive controls, respectively. The sodium currents of the positive control were considered as 100%.
(§9) where [Test] represents the concentration of the evaluated molecule, IC50 is the concentration of the compound that generates half of the maximum inhibition, N is the Hill's coefficient and % Block′ is the percentage of the sodium channel current (Nav 1.8 and Nav 1.7) inhibited at each concentration of the evaluated molecule. Data were obtained by non linear least squares regression with XL fit for Excel (Microsoft, Redmond, WA).
(§10) Compounds were tested in at least one assay to obtain the IC50 value.

In assay [2] the target is human sodium channel Nav 1.7 (Homo sapiens (Human), UniProt Q15858). The assay is described as follows: Automated whole-cell voltage-clamp (ScreenPatch 384P), Nav 1.7 sodium current, Protocol 2. The assay is classed as cell-based. As to conditions: read-out: Nav1.7 IC50. Here is the method: as §1, §2, §3, §4, §5, §6, §7, §8, §9, §10

Bounds are passed on as bounds.

By IC50 is commonly meant the concentration at which inhibition is half-maximal.

Sequence of human sodium channel Nav 1.8 (Q9Y5Y9 whole entry): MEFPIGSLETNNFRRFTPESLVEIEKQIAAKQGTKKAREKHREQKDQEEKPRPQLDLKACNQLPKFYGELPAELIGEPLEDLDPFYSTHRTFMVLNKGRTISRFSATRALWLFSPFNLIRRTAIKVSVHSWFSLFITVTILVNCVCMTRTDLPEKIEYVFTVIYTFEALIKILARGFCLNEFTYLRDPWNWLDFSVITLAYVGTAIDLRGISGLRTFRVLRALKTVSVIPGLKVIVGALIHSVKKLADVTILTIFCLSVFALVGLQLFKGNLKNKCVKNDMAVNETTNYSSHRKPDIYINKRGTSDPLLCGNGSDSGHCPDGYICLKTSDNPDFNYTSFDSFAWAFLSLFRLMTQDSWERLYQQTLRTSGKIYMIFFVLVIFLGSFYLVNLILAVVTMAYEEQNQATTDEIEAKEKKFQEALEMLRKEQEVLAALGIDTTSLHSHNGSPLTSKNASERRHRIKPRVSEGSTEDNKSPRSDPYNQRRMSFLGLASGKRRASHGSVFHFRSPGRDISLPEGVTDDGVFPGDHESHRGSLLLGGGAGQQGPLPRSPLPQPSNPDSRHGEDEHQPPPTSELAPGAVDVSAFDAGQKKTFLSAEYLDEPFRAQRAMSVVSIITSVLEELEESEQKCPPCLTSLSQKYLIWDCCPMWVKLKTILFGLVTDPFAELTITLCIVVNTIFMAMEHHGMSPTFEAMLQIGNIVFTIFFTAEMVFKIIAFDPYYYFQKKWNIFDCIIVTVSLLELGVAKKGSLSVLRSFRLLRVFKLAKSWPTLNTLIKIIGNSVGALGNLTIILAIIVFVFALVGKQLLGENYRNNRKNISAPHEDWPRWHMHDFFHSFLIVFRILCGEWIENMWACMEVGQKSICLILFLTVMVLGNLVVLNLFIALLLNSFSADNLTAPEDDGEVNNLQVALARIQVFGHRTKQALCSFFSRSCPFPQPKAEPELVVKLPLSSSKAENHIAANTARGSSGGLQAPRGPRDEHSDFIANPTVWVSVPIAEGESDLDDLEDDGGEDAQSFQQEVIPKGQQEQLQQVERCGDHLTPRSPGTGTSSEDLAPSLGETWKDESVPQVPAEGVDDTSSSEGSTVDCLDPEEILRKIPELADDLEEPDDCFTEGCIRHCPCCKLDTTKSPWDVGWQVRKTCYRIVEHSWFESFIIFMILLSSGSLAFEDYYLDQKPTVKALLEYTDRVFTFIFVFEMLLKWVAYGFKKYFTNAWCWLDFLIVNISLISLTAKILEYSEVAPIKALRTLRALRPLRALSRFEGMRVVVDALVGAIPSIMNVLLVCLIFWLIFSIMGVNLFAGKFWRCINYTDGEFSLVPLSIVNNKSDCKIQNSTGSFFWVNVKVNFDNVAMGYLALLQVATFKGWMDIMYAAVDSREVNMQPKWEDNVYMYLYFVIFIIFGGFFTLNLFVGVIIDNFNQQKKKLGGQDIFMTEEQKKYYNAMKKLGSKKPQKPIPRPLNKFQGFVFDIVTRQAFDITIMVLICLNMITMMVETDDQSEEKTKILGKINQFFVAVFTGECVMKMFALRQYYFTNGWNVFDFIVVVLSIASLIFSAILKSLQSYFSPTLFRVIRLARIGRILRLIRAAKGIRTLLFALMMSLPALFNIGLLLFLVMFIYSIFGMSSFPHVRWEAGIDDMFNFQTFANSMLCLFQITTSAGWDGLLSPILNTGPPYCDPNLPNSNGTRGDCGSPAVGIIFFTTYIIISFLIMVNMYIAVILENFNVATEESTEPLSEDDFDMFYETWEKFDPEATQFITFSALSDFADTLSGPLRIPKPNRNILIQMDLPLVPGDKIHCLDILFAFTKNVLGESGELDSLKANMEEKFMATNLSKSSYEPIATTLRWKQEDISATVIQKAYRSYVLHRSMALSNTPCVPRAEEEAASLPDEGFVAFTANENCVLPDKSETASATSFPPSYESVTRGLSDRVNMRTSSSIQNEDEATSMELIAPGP
Sequence of human sodium channel Nav 1.7 (Q15858 whole entry): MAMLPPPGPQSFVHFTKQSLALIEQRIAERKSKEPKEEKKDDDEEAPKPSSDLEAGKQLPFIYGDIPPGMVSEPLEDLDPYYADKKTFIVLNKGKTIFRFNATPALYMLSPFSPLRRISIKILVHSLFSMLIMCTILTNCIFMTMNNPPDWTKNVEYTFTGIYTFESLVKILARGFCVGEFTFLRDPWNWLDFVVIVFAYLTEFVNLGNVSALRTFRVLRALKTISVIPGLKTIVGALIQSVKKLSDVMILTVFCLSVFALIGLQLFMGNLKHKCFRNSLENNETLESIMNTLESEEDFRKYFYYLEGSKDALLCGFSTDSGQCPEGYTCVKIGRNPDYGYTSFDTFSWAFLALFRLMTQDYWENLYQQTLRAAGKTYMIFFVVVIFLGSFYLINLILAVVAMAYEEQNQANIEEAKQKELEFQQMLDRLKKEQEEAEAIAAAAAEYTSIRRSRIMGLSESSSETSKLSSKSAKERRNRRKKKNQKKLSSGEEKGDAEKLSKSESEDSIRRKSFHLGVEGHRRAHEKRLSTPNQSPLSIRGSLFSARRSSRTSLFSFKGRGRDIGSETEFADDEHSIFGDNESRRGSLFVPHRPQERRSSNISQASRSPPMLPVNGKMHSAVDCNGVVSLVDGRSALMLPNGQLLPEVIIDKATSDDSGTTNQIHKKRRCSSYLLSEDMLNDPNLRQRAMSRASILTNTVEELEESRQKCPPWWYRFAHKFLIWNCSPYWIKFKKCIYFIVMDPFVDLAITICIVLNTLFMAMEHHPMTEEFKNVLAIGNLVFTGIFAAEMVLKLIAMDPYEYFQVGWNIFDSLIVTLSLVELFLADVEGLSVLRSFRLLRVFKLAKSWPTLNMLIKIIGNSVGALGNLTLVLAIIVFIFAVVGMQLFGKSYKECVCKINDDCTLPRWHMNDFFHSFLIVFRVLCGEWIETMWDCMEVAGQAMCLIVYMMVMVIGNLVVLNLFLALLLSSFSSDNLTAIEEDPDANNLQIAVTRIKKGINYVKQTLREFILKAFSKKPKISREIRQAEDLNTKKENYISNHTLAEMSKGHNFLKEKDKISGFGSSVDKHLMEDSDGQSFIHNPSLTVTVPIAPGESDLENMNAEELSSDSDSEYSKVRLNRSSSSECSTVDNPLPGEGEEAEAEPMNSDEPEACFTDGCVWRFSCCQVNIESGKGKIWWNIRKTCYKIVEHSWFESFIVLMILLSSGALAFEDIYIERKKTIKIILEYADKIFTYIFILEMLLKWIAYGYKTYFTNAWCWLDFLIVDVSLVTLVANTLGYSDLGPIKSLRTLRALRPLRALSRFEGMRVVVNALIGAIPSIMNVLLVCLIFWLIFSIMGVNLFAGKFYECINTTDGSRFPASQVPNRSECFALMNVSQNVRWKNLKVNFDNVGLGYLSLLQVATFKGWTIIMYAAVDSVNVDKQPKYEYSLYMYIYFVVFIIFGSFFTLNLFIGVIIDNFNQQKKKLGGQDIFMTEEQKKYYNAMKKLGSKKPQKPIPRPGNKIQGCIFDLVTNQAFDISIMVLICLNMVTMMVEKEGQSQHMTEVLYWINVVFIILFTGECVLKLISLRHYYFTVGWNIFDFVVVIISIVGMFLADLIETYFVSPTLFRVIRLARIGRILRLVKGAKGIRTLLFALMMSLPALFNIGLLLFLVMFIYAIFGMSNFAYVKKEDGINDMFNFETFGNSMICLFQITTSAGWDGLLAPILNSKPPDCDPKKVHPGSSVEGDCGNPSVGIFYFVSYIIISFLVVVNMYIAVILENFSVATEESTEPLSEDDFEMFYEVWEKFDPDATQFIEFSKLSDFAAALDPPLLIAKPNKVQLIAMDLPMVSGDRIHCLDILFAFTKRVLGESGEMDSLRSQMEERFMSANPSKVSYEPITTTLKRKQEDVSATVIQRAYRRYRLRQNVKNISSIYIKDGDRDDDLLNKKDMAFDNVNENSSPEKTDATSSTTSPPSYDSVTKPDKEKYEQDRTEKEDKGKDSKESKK

As to `COc1cc(/C=N/NC(=O)c2cncc(-c3ccc(Cl)cc3)n2)cc(OC)c1` [Compound 1, 6-(4-chlorophenyl)-N′-[(E)-(3,5-dimethoxyphenyl)methylidene]pyrazine-2-carbohydrazide], the IC50 in assay [1] and in assay [2] was above 1000 nM in each case.

With `CCOc1ccc(-c2cncc(C(=O)N/N=C/c3cc(OC)cc(OC)c3)n2)cc1` [Compound 2, (E)-N′-(3,5-dimethoxybenzylidene)-6-(4-ethoxyphenyl)pyrazine-2-carbohydrazide], the IC50 in assay [1] is 32.5 nM; in assay [2] it was 239 nM.

Consider `CCOc1ccc(-c2cncc(C(=O)N/N=C/c3cc(OC)ccc3OC)n2)cc1` [Compound 3, (E)-N′-(2,5-dimethoxybenzylidene)-6-(4-ethoxyphenyl)pyrazine-2-carbohydrazide], for which the IC50 in assay [1] turned out to be 152 nM; in assay [2], 855 nM.

In the case of `CCOc1ccc(-c2cncc(C(=O)N/N=C/c3cc(OC)cc4ocnc34)n2)cc1` [Compound 6, (E)-6-(4-ethoxyphenyl)-N′-((6-methoxybenzo[d]oxazol-4-yl)methylene)pyrazine-2-carbohydrazide], the half-inhibitory concentration (IC50) in assay [1] and in assay [2] was above 300 nM in each case.

For `CCOc1ccc(-c2cncc(C(=O)N/N=C/c3ccnc(OC)c3)n2)cc1` [Compound 10, (E)-6-(4-ethoxyphenyl)-N′-((2-methoxypyridin-4-yl)methylene)pyrazine-2-carbohydrazide], the IC50 in assay [1] and in assay [2] was above 300 nM throughout.

As for `CCOc1ccc(-c2cncc(C(=O)N/N=C/c3cc(OC)cc(OC)c3OC)n2)cc1` [Compound 13, (E)-6-(4-ethoxyphenyl)-N′-(2,3,5-trimethoxybenzylidene)pyrazine-2-carbohydrazide], the IC50 is 73 nM in assay [1] and 189 nM in assay [2].

In the case of `CCOc1ccc(-c2cncc(C(=O)N/N=C/c3cc(OC)cc(OC)c3OCC)n2)cc1` [Compound 14, (E)-N′-(2-ethoxy-3,5-dimethoxybenzylidene)-6-(4-ethoxyphenyl)pyrazine-2-carbohydrazide], the IC50 in assay [1] came to 156 nM; in assay [2] it was 308 nM.

Turning to `CCOc1ccc(-c2cncc(C(=O)N/N=C/c3cc(F)cc(OC)c3)n2)cc1` [Compound 15, (E)-6-(4-ethoxyphenyl)-N′-(3-fluoro-5-methoxybenzylidene)pyrazine-2-carbohydrazide], the half-maximal inhibitory concentration (IC50) in assay [1] came out at 25.2 nM; in assay [2], 243 nM.

On to `CCCOc1cc(/C=N/NC(=O)c2cncc(-c3ccc(OCC)cc3)n2)cc(OC)c1` [Compound 16, (E)-6-(4-ethoxyphenyl)-N′-(3-methoxy-5-propoxybenzylidene)pyrazine-2-carbohydrazide], for which the results for the IC50 in assay [1] and in assay [2] were 93.3 nM and 224 nM, respectively.

`CCOc1ccc(-c2cncc(C(=O)N/N=C/c3cc(OC)c(F)c(OC)c3)n2)cc1` [Compound 17, (E)-6-(4-ethoxyphenyl)-N′-(4-fluoro-3,5-dimethoxybenzylidene)pyrazine-2-carbohydrazide]: the IC50 in assay [1] is 232 nM; in assay [2] it was 7860 nM.

For the compound `CCOc1ccc(-c2cncc(C(=O)N/N=C/c3cc(OC)ccc3Cl)n2)cc1` [Compound 18, (E)-N′-(2-chloro-5-methoxybenzylidene)-6-(4-ethoxyphenyl)pyrazine-2-carbohydrazide], the IC50 in assay [1] was 62.6 nM; in assay [2], 237 nM.

On to `CCOc1ccc(-c2cncc(C(=O)N/N=C/c3cccc(OC)c3Cl)n2)cc1` [Compound 19, (E)-N′-(2-chloro-3-methoxybenzylidene)-6-(4-ethoxyphenyl)pyrazine-2-carbohydrazide], for which the IC50 was 93.5 nM in assay [1] and 575 nM in assay [2].

Consider `CCOc1ccc(-c2cncc(C(=O)N/N=C/c3cc(OC)ccc3F)n2)cc1` [Compound 20, (E)-6-(4-ethoxyphenyl)-N′-(2-fluoro-5-methoxybenzylidene)pyrazine-2-carbohydrazide], for which the results for the IC50 in assay [1] and in assay [2] were 13.3 nM and 228 nM, respectively.

As to `CCOc1ccc(-c2cncc(C(=O)N/N=C/c3cccc(OC)c3F)n2)cc1` [Compound 21, (E)-6-(4-ethoxyphenyl)-N′-(2-fluoro-3-methoxybenzylidene)pyrazine-2-carbohydrazide], the IC50 in assay [1] was 74.5 nM; in assay [2] it was 268 nM.

`CCOc1ccc(-c2cncc(C(=O)N/N=C/c3cccc(OC)c3)n2)cc1` [Compound 22, (E)-6-(4-ethoxyphenyl)-N′-(3-methoxybenzylidene)pyrazine-2-carbohydrazide]: the IC50 was determined as 27.2 nM in assay [1] and 228 nM in assay [2].

On to `CCOc1ccc(-c2cncc(C(=O)N/N=C/c3ccccc3OC)n2)cc1` [Compound 26, (E)-6-(4-ethoxyphenyl)-N′-(2-methoxybenzylidene)pyrazine-2-carbohydrazide], for which the IC50 came out at 24.9 nM in assay [1] and 322 nM in assay [2].

As to `CCOc1ccc(-c2cncc(C(=O)N/N=C/c3cccc(OC)c3OC)n2)cc1` [Compound 27, (E)-N′-(2,3-dimethoxybenzylidene)-6-(4-ethoxyphenyl)pyrazine-2-carbohydrazide], the IC50 in assay [1] was 221 nM; in assay [2], 233 nM.

`COc1cc(/C=N/NC(=O)c2cncc(-c3ccc(OC(C)C)cc3)n2)cc(OC)c1` [Compound 29, (E)-N′-(3,5-dimethoxybenzylidene)-6-(4-isopropoxyphenyl)pyrazine-2-carbohydrazide]: the half-inhibitory concentration (IC50) in assay [1] was 51.3 nM; in assay [2], 63.1 nM.

For `COc1cc(/C=N/NC(=O)c2cncc(-c3ccc(OC4CCCC4)cc3)n2)cc(OC)c1` [Compound 30, 6-[4-(cyclopentyloxy)phenyl]-N′-[(E)-(3,5-dimethoxyphenyl)methylidene]pyrazine-2-carbohydrazide], the results for the IC50 in assay [1] and in assay [2] were 102 nM and 55.6 nM, respectively.

Regarding `COc1cc(/C=N/NC(=O)c2cncc(-c3ccc(OC(F)(F)F)cc3)n2)cc(OC)c1` [Compound 31, N′-[(E)-(3,5-dimethoxyphenyl)methylidene]-6-[4-(trifluoromethoxy)phenyl]pyrazine-2-carbohydrazide], the IC50 in assay [1] was 132 nM; in assay [2], above 10000 nM.

Regarding `CCCOc1ccc(-c2cncc(C(=O)N/N=C/c3cc(OC)cc(OC)c3)n2)cc1` [Compound 32, N′-[(E)-(3,5-dimethoxyphenyl)methylidene]-6-(4-propoxyphenyl)pyrazine-2-carbohydrazide], the IC50 in assay [1] was 73.9 nM; in assay [2], 210 nM.

With `COc1ccc(-c2cncc(C(=O)N/N=C/c3cc[nH]c(=O)c3)n2)cc1` [Compound 34, (E)-6-(4-methoxyphenyl)-N′-((2-oxo-1,2-dihydropyridin-4-yl)methylene)pyrazine-2-carbohydrazide], the IC50 in assay [1] is above 1000 nM; in assay [2] it was above 10000 nM.

For the compound `COc1ccc(-c2cncc(C(=O)N/N=C/c3ccc(F)c(C(N)=O)c3)n2)cc1` [Compound 35, (E)-2-fluoro-5-((2-(6-(4-methoxyphenyl)pyrazine-2-carbonyl)hydrazono)methyl)benzamide], the IC50 in assay [1] is above 1000 nM; in assay [2], above 10000 nM.

For `COc1ccc(-c2cncc(C(=O)N/N=C/c3ccnc(C(N)=O)c3)n2)cc1` [Compound 36, (E)-4-((2-(6-(4-methoxyphenyl)pyrazine-2-carobnyl)hydrazono)methyl)picolinamide], the IC50 in assay [1] was above 1000 nM; in assay [2] it was above 10000 nM.

For `COc1ccc(-c2cncc(C(=O)N/N=C/c3cccc(OC)c3)n2)cc1` [Compound 37, (E)-N′-(3-methoxybenzylidene)-6-(4-methoxyphenyl)pyrazine-2-carbohydrazide], the IC50 came to 115 nM in assay [1] and 1570 nM in assay [2].

Regarding `COc1ccc(-c2cncc(C(=O)N/N=C/c3cccc(CN(C)C)c3)n2)cc1` [Compound 38, (E)-N′-(3-((dimethylamino)methyl)benzylidene)-6-(4-methoxyphenyl)pyrazine-2-carbohydrazide], the values for the half-maximal inhibitory concentration (IC50) in assay [1] and in assay [2] were above 1000 nM and above 10000 nM, respectively.

The record behind these values is patent publication US20240335442A1 (Eurofarma Laboratórios S.A., priority 2021, published 2024).
